The nature of series [1]: In vivo pharmacokinetics in rats. The settings on record: male SD rats; for Oral DNAUC (AUCPO/Dose) / bioavailability: oral 2 mg/kg; for clearance / half-life / Vd / bioavailability / Cmax: rat, plasma; for clearance / half-life / Vd / Cmax: intravenous 1 mg/kg or oral 2 mg/kg; for clearance: read-out: Cl (clearance rate); for half-life: read-out: T1/2 (half-life) (converted); for Vd: read-out: Vdss (distribution volume); for bioavailability: intravenous 1 mg/kg, read-out: F % (oral bioavailability); for Cmax: single administration. From the text:
Study on the In Vivo Pharmacokinetics in Rats
The purpose of the experiment: Male SD rats were used as test animals and were given a single administration to determine the plasma concentration of the compound and evaluate the pharmacokinetic behavior.
Experimental method: Six healthy adult male SD rats were divided into 2 groups, with 3 rats in an intravenous injection group and 3 rats in an oral administration group. In the intravenous injection group, the test compound was mixed with an appropriate amount of vehicle (10% N-methyl pyrrolidone (NMP)/10% polyethylene glycol-15 hydroxystearate (available from solutol)/80% water), then vortexed and sonicated to prepare 0.2 mg/mL clear solution, which was filtered by microporous membrane. In the oral administration group, 10% N-methyl pyrrolidone (NMP)/10% polyethylene glycol-15 hydroxy stearate (available from solutol)/80% water was used as a vehicle and mixed with the test compound, then vortexed and sonicated to prepare 0.40 mg/mL clear solution. The rats were given intravenous administration at a dose of 1 mg/kg or oral administration at a dose of 2 mg/kg. Whole blood was collected at a certain period of time to prepare the plasma. The drug concentration of the plasma was analyzed by LC-MS/MS method, and the pharmacokinetic parameters were calculated using Phoenix WinNonlin software (Pharsight Company, USA).

Series [2] deals with SD rats. Kind of series: Oral glucose tolerance test (OGTT) in rats, first time. Format: in vivo. The note with it: first study, male SD rats, 10 mg/kg single intragastric administration; for OGTT blood glucose level AUC0-2 hr: glucose 2 g/kg; for Urine glucose level / Urine volume: urine 0-24 h. As to the method: Experimental Example 3. Study on In Vivo Efficacy of Oral Glucose Tolerance Test (OGTT) in Rats: Study on the In Vivo Efficacy of Oral Glucose Tolerance Test (OGTT) in Rats for the First Time
(§1) The experimental animals were allowed to adapt to the environment in the animal room for one week after they arrived.
(§2) The animals fasted in the metabolic cage for 18 hours, then were given drugs or vehicle (2 ml/kg) according to the above table, and subsequently were immediately given 50% glucose solution (2 g/kg, 4 ml/kg).
(§3) 2 hours after the administration of glucose solution, feed intake was restored. Blood samples were taken at 0 min, 15 min, 30 min, 45 min, 60 min and 120 min respectively, and urine samples were collected at 0-24 h to test blood glucose, urine glucose (mg/200 g) and urine volume respectively.
(§4) All values are represented as averages. Statistical analysis was performed using Graphpad Prism 6 one-way analysis of variance and Tukey's multiple comparison test. P value of less than 0.05 is considered statistically significant.

The subject of series [3] is db/db mice. Kind of series: Random blood glucose in diabetic db/db mice. Format: in vivo. The settings on record: mean±S.E.M. As to the method:
(§5) Experimental Example 4: Study on the In Vivo Pharmacodynamics in Diabetic Db/Db Mice
(§6) The animals were kept in an animal breeding room with strictly controlled environmental conditions after they arrived. The animal breeding room was maintained at a temperature of 20-24° C. and a humidity of 40-70%. The temperature and humidity in the feeding room were monitored in real time by a hygrothermograph, and the temperature and humidity were recorded twice daily (one in the morning and the other in the afternoon). The lighting of the animal feeding room was controlled by an on-off electronic timing system, with lights for 12 hours and dark for 12 hours daily (turned on at 7:00 a.m. and turned off at 19:00 p.m). The mice were raised in separate cages and were given free access to feed (reproductive feed 17053113 for rats and mice, available from Beijing Keao Xieli Feed Co., Ltd.) and water during the experiment.
(§7) During the experiment, the animals were administrated with the corresponding vehicles or drugs according to the group with an administration time of 16:00 and an administration period of 8 weeks.
(§8) The dose was 5 mg/kg from week 1 to week 4; and the dose was 10 mg/kg from week 5 to week 8.
(§9) Random and fasting blood glucose levels were measured once a week.
The random blood glucose level was measured at 10:00 a.m.
(§10) All of the data were entered into an Excel document and expressed in the form of mean±S.E.M. The differences between groups were compared using graphpad Prism 6 software and one-way analysis of variance (ANOVA). P value of less than 0.05 is considered a significant difference.

For series [4], the system named is db/db mice. Put plainly: Fasting blood glucose in diabetic db/db mice. It counts as in vivo. The settings on record: fasted from 10:00, mean±S.E.M. As to the method:
as §5, §6, §7, §8, §9
Fasting blood glucose test: The mice fasted from 10:00 a.m., and blood glucose level was firstly measured at 16:00. Then the mice were administered with the drugs, and 2 hours later blood glucose level was measured again, and then feed intake was restored.
as §10

For series [5], the system named is db/db mice. Kind of series: Oral glucose tolerance test (OGTT) at week 8 in diabetic db/db mice. The note with it: 5 mg/kg weeks 1-4, 10 mg/kg weeks 5-8, once daily, fasted 6 hours, glucose 2 g/kg, mean±S.E.M. It counts as in vivo. As to the method:
as §5, §7, §8
At the end of the experiment (i.e. the last 3 days of administration), the animals fasted for 6 hours, then were given a single administration of glucose aqueous solution at a dose of 2 g/kg. The time of the glucose administration was recorded as 0 min. Blood glucose levels of the animals were detected at 0 min before the glucose administration, and 15 min, 30 min, 90 min and 120 min after the glucose administration, respectively. The glucose tolerance curve was drawn according to the data of blood glucose levels vs time, and the area under the curve (AUC) was calculated. The administration was given at 16:00.
as §10

Series [6] concerns db/db mice. Kind of series: Glycosylated hemoglobin (HbA1c) in diabetic db/db mice. It counts as in vivo. The settings on record: for HbA1c (%): fasted 6 hours; for Rate of Decline of HbA1c (%): vs. vehicle control group. As to the method:
as §5, §7, §8
At weeks 4 and 8 of the experiment, the animals fasted for 6 hours, and blood samples were collected to measure glycosylated hemoglobin.
as §10

The subject of series [7] is SD rats. Put plainly: Oral glucose tolerance test (OGTT) in rats, second time. It counts as in vivo. The note with it: second study, male SD rats, 10 mg/kg single intragastric administration. As to the method: Study on the In Vivo Efficacy of Oral Glucose Tolerance Test (OGTT) in Rats for the Second Time:
as §1, §2, §3, §4

The mark [8] stands for this setting: Week 1, 5 mg/kg intragastric once daily.
[9] abbreviates: Week 2, 5 mg/kg intragastric once daily.
Setting [10] is: Week 3, 5 mg/kg intragastric once daily.
The mark [11] stands for this setting: Week 4, 5 mg/kg intragastric once daily.
The mark [12] stands for this setting: Week 5, 10 mg/kg intragastric once daily (5 mg/kg weeks 1-4).
[13] abbreviates: Week 6, 10 mg/kg intragastric once daily (5 mg/kg weeks 1-4).
[14] abbreviates: Week 7, 10 mg/kg intragastric once daily (5 mg/kg weeks 1-4).
Where [15] appears, read: Week 8, 10 mg/kg intragastric once daily (5 mg/kg weeks 1-4).
Setting [16] is: Week 8, 5 mg/kg weeks 1-4, 10 mg/kg weeks 5-8, once daily.

Marks after values point to notes of the source that are not given here.

In general, bioavailability refers to dose-corrected exposure relative to a reference, in per cent. The term Cmax denotes the highest concentration seen after dosing. For `CS[C@H]1OC(c2ccc(Cl)c(Cc3ccc(C4=CCC(F)(F)CC4)cc3)c2)[C@H](O)[C@@H](O)[C@@H]1O` (stereo partly drawn) [WXD001], in series [1], the “Oral DNAUC (AUCPO/Dose)” value stood at 1823 nM · h/mpk, the clearance was 10.1 mL/min/kg, the half-life is 4.59 h and the Vd was 3.86 L/kg. In series [1], the bioavailability amounted to 59% and the Cmax came to 410 nM. In the series on SD rats [2], the OGTT blood glucose level AUC0-2 hr was determined as 832 mmol/L/min; the Urine glucose level is recorded as 2181.4**** mg/200 g, BW; the Urine volume is given as 37.58**** mL/200 gBW.

Regarding `CS[C@H]1O[C@@H](c2ccc(C)c(Cc3ccc(C4=CCC(F)(F)CC4)cc3)c2)[C@H](O)[C@@H](O)[C@@H]1O` [WXD003], the “Oral DNAUC (AUCPO/Dose)” value in series [1] is on record as 1013 nM · h/mpk. The clearance in series [1] was found to be 14.5 mL/min/kg. Moreover, the half-life in series [1] is 2.56 h. In series [1], the Vd was found to be 2.94 L/kg. In addition, the bioavailability in series [1] turned out to be 47.7%. This compound gave a Cmax in series [1] of 391 nM. Besides, the OGTT blood glucose level AUC0-2 hr in the series on SD rats [2] worked out at 797 mmol/L/min; in the series on db/db mice [5], 2810 ± 155 mmol/L/min. In addition, the Urine glucose level in the series with SD rats [2] is 1636.4**** mg/200 g, BW. Besides, the Urine volume in the series with SD rats [2] stood at 24.58 mL/200 gBW. The Random blood glucose with db/db mice [3] (setting [8]) turned out to be 14.3 ± 2.28; in the series with db/db mice [3] (setting [9]), 15.7 ± 0.88; in the series with db/db mice [3] (setting [10]) it was 13.6 ± 1.40; in the series with db/db mice [3] (setting [11]), 13.3 ± 0.81; in the series with db/db mice [3] (setting [12]), 14.1 ± 1.28; in the series with db/db mice [3] (setting [13]), 10.1 ± 1.26. Further, the Random blood glucose in the series with db/db mice [3] (setting [14]) is 12.5 ± 1.23; with db/db mice [3] (setting [15]) it was 14.4 ± 1.77. In addition, the Fasting blood glucose turned out to be 14.8 ± 2.34 in the series on db/db mice [4] (setting [8]); 19.9 ± 1.32 in the series on db/db mice [4] (setting [9]); 15.8 ± 1.48 in the series with db/db mice [4] (setting [10]); 14.3 ± 1.29 in the series with db/db mice [4] (setting [11]); 17.4 ± 1.72 with db/db mice [4] (setting [12]); 10.9 ± 1.42 with db/db mice [4] (setting [13]). Besides, the Fasting blood glucose in the series with db/db mice [4] (setting [14]) is listed as 11.7 ± 1.30; in the series with db/db mice [4] (setting [15]) it was 13.0 ± 1.36. The “HbA1c (%)” value is recorded as 5.7*** % in the series on db/db mice [6] (setting [11]) and 5.9**** % with db/db mice [6] (setting [16]). Moreover, the results for the “Rate of Decline of HbA1c (%)” value in the series on db/db mice [6] (setting [11]) and in the series with db/db mice [6] (setting [16]) were −32% and −39%, respectively.

Take `CCc1ccc([C@@H]2O[C@H](SC)[C@@H](O)[C@H](O)[C@H]2O)cc1Cc1ccc(C2=CCC(F)(F)CC2)cc1` [WXD010]: in series [1], the “Oral DNAUC (AUCPO/Dose)” value is 2320 nM · h/mpk. In addition, the clearance in series [1] stood at 8.06 mL/min/kg. Further, the half-life in series [1] is 4.5 h. Also, the Vd in series [1] turned out to be 2.48 L/kg. For the same compound, in series [1], the bioavailability turned out to be 56.4%. Further, the highest level in series [1] (Cmax) was 356 nM. The values for the OGTT blood glucose level AUC0-2 hr with SD rats [7] (glucose 2 g/kg) and in the series on db/db mice [5] were 720 mmol/L/min and 2120 ± 99.2 mmol/L/min, respectively. The Urine glucose level in the series on SD rats [7] (urine 0-24 h) is given as 2118.7**** mg/200 g, BW. The Urine volume in the series on SD rats [7] (urine 0-24 h) is recorded as 20.0**** mL/200 g, BW. The Random blood glucose stood at 16.7 ± 1.00 with db/db mice [3] (setting [8]); 13.5 ± 2.46 in the series with db/db mice [3] (setting [9]); 14.1 ± 0.97 with db/db mice [3] (setting [10]); 15.4 ± 1.34 with db/db mice [3] (setting [11]); 13.2 ± 1.09 in the series on db/db mice [3] (setting [12]); 10.6 ± 1.48 in the series with db/db mice [3] (setting [13]). In addition, the Random blood glucose with db/db mice [3] (setting [14]) came to 9.8 ± 0.82; in the series on db/db mice [3] (setting [15]), 9.2 ± 0.68. The Fasting blood glucose in the series with db/db mice [4] (setting [8]) is 14.7 ± 2.50; in the series on db/db mice [4] (setting [9]) it was 14.4 ± 1.47; in the series on db/db mice [4] (setting [10]), 15.8 ± 1.40; in the series with db/db mice [4] (setting [11]), 14.9 ± 1.24; in the series with db/db mice [4] (setting [12]), 15.9 ± 0.79; in the series on db/db mice [4] (setting [13]), 11.0 ± 1.67. Further, the Fasting blood glucose is recorded as 9.6 ± 0.91 in the series on db/db mice [4] (setting [14]) and 8.1 ± 0.51 with db/db mice [4] (setting [15]). Moreover, the “HbA1c (%)” value is 5.8*** % in the series on db/db mice [6] (setting [11]) and 5.1**** % in the series with db/db mice [6] (setting [16]). The entries for the “Rate of Decline of HbA1c (%)” value in the series with db/db mice [6] (setting [11]) and in the series with db/db mice [6] (setting [16]) were −31% and −47%, respectively.
